The source of these data is PMC5108032, “Discovery of a Quinoline-4-carboxamide Derivative with a Novel Mechanism of Action, Multistage Antimalarial Activity, and Potent in Vivo Efficacy” (Journal of Medicinal Chemistry, 2016).

Data set [1] can be described thus: Plasma protein binding (equilibrium dialysis). The class given is in vitro ADME. Particulars: female, NMRI; mouse plasma protein binding; read-out: PPB (converted). On the procedure:
by the addition of excess NADPH (8 mg/mL 50 mM potassium phosphate buffer, pH 7.4).
Immediately, at time zero, then at 3, 6, 9, 15 and 30 min an aliquot (50 μL) of the incubation mixture was removed and mixed with acetonitrile (100 μL) to stop the reaction. Internal standard was added to all samples, the samples centrifuged to sediment precipitated protein and the plates then sealed prior to UPLC-MS/MS analysis using a Quattro Premier XE (Waters Corporation, USA).
XLfit (IDBS, UK) was used to calculate the exponential decay and consequently the rate constant (k) from the ratio of peak area of test compound to internal standard at each timepoint. The rate of intrinsic clearance (CLi) of each test compound was then calculated using the following calculation:
CLi (mL/min/g liver) = k x V x Microsomal protein yield
Where V (mL/mg protein) is the incubation volume/mg protein added and microsomal protein yield is taken as 52.5 mg protein per g liver. Verapamil (0.5 µM) was used as a positive control to confirm acceptable assay performance. Experiments were performed using a single time-course experiment.
Plasma Protein Binding (PPB) experiments
This was based on a previously described method, with the exception that NMRI mouse plasma was used here.8 In brief, a 96 well equilibrium dialysis apparatus was used to determine the free fraction in plasma for each compound (HT Dialysis LLC, Gales Ferry, CT). Membranes (12-14 kDA cut-off) were conditioned in deionised water for 60 min, followed by conditioning in 80:20 deionised water:ethanol for 20 min, and then rinsed in isotonic buffer before use. Female CD1 mouse plasma was removed from the freezer and allowed to thaw on the day of experiment. Thawed plasma was then centrifuged (Allegra X12-R, Beckman Coulter, USA), spiked with test compound (final concentration 10 μg/mL), and 150 μL aliquots (n=6 replicate determinations) loaded into the 96-well equilibrium dialysis plate. Dialysis against isotonic buffer (150 µL) was carried out for 5 h in a temperature controlled incubator at ~37 °C (Barworld scientific Ltd, UK) using an orbital microplate shaker at 100 revolutions/minute (Barworld Scientific Ltd, UK). At the end of the incubation period, 50 μL aliquots of plasma or buffer were transferred to micronic tubes (Micronic B.V., the Netherlands) and the composition in each tube balanced with control fluid (50 μL), such that the volume of buffer to plasma is the same. Sample extraction was performed by the addition of 200 µL of acetonitrile containing an appropriate internal standard. Samples were allowed to mix for 1 min and then centrifuged at 3000 rpm in 96-well blocks for 15 min (Allegra X12-R, Beckman Coulter, USA) after which 150 μL of supernatant was removed to 50 μL of water. All samples were analysed by UPLC-MS/MS on a Quattro Premier XE Mass Spectrometer (Waters Corporation, USA). The unbound fraction was determined as the ratio of the peak area in buffer to that in plasma. Experiments […]
Parallel Artificial Membrane Permeability Assay (PAMPA)
PAMPA was performed using a 96-well pre-coated BD Gentest™ PAMPA plate (BD Biosciences, U.K.). Each well was divided into two chambers; donor and acceptor, separated by a lipid-oil-lipid tri-layer constructed in a porous filter. The effective permeability, Pe, of the compound was measured at pH 7.4. Stock solutions (5 mM) of the compound were prepared in DMSO. The compound was then further diluted to 10 µM in phosphate buffered saline at pH 7.4. […]

Data set [2] in a line: Oral maximum tolerated dose. Particulars: in vivo, 300 mg/kg.
The test system of data set [3] is Pf (3D7). The data set is described as follows: Ligand efficiency metrics (LE, LLE, LELP), selectivity and fold changes. Also noted: species or system Plasmodium falciparum.
A short description of data set [4]: Experimental pKa by potentiometric titration. Format: physicochemical. Particulars: value in parentheses, read-out: R^3 group pKa, experimental. From the text:
Table 4 SAR Study of the R^3 Substituent: Aromatic Groups | column: R^3 group pKa^a

On to `O=C(NCCN1CCCC1)c1cc(NCCCN2CCOCC2)nc2ccc(F)cc12` [Compound 25, 6-Fluoro-2-((3-morpholinopropyl)amino)-N-(2-(pyrrolidin-1-yl)ethyl)quinoline-4-carboxamide], for which the fraction unbound at 5 h, 10 μg/mL in data set [1] was 0.41. In addition, the maximal tolerated dose (MTD) at 4 days in data set [2] is over 300 mg/kg. The “LLE (ligand-lipophilicity efficiency)” value in data set [3] is 5.4. On to `O=C(NCCN1CCCC1)c1cc(NCCCCN2CCOCC2)nc2ccc(Cl)cc12` [Compound 27, 6-Chloro-2-((4-morpholinobutyl)amino)-N-(2-(pyrrolidin-1-yl)ethyl)quinoline-4-carboxamide], for which the fraction unbound at 5 h, 10 μg/mL in data set [1] is 0.51. In addition, the “LLE (ligand-lipophilicity efficiency)” value in data set [3] is listed as 6.2. Moreover, the “improvement / increase in potency” value in data set [3] (Pf (3D7), relative to the comparator compound of the sentence) was determined as 17 fold. For the compound `O=C(NCCN1CCCC1)c1cc(NCCC2CCOCC2)nc2ccc(Cl)cc12` [Compound 30, 6-Chloro-N-(2-(pyrrolidin-1-yl)ethyl)-2-((2-(tetrahydro-2H-pyran-4-yl)ethyl)amino)quinoline-4-carboxamide], the fraction unbound at 5 h, 10 μg/mL in data set [1] is 0.23. Still for that read-out and setting: the value for `O=C(NCCN1CCCC1)c1cc(-c2ccc(S(=O)(=O)N3CCOCC3)cc2)nc2ccc(F)cc12` [Compound 38, 6-Fluoro-2-(4-(morpholinosulfonyl)phenyl)-N-(2-(pyrrolidin-1-yl)ethyl)quinoline-4-carboxamide] was 0.25. With `O=C(NCCN1CCCC1)c1cc(-c2ccc(CN3CCOCC3)cc2F)nc2ccc(F)cc12` [Compound 41], the pKa in data set [4] turned out to be 6.3. On to `O=C(NCCN1CCCC1)c1cc(-c2ccc(CN3CCOCC3)cc2Cl)nc2ccc(F)cc12` [Compound 42, 2-(2-Chloro-4-(morpholinomethyl)phenyl)-6-fluoro-N-(2-(pyrrolidin-1-yl)ethyl)quinoline-4-carboxamide], for which the fraction unbound at 5 h, 10 μg/mL in data set [1] is 0.44. For the same compound, in data set [4], the pKa stood at 6.3.
